Molecular target: PRMT5 (Homo sapiens (Human), UniProt O14744)
Experiment: In vitro evaluation of kinase activity (PRMT5 enzymatic assay, [3H]-SAM FlashPlate)
Type: biochemical
Settings: polypeptide substrate H4(1-21)S1ac 100 nM, [3H]-SAM 250 nM, 25° C., 60 min; read-out: Enzyme IC50 PRMT5
Method: Compounds: the compounds of the present invention prepared in the above examples. Each compound was formulated into a 10 mM stock solution with DMSO, and finally diluted into 10 concentrations for detection, with the final concentrations being 10000.00 nM, 3333.33 nM, 1111.11 nM, 370.37 nM, 123.46 nM, 41.15 nM, 13.72 nM, 4.57 nM, 1.52 nM, and 0.51 nM.
Reagents and consumables: PRMTS, purchased from Active Motif, Cat. No. 31921; polypeptide substrate H4(1-21)S1ac, purchased from Gill Biochemical (Shanghai) Co., Ltd., Cat. No. 342095; [^3H]-SAM, purchased From PerkinElmer, Cat. No. NET155V001MC; SAM, purchased from Sigma, Cat. No. A7007-100MG; SAH, purchased from Sigma, Cat. No. A9384-25MG; DTT, purchased from Sangon Bioengineering (Shanghai) Co., Ltd., Cat. No. A620058-0005. Corning-3657, purchased from Corning, Cat. No. 3657; Echo Qualified 384-Well, purchased from Labcyte, Cat. No. P-05525; FlashPlate, purchased from Perkin Elmer, Cat. No. SMP410J001PK.
2.1. Preparation of reaction buffer and reaction stop solution: the composition of 1× reaction buffer was 10 mM Tris-HCl, pH 8.0; 0.01% Tween-20; and 1 mM DTT. The composition of the reaction stop solution was 125 μM […] solution.
The compounds were dissolved in 100% DMSO to prepare 10 mM stock solutions and then diluted to desired concentrations on an Echo 384 well plate.
250 nL of the compounds diluted above were transferred from the Echo 384 well plate to a 384 well reaction plate using the Echo550 instrument.
PRMT5 was added to 1× reaction buffer to form 1.67× enzyme solution.
The polypeptide substrate and [^3H]-SAM were added to 1× reaction buffer to form 2.5× substrate solution (the final concentrations were 100 nM and 250 nM, respectively).
15 μL of 1.67× enzyme solution was added to the wells of a 384 well reaction plate. For control wells without enzymatic activity, the enzyme solution was replaced with 15 μL of 1× reaction buffer. The plate was centrifuged at 1000 rpm for 1 min and incubated at room temperature for 15 min. […]

Chain of PRMT5 (O14744 whole entry): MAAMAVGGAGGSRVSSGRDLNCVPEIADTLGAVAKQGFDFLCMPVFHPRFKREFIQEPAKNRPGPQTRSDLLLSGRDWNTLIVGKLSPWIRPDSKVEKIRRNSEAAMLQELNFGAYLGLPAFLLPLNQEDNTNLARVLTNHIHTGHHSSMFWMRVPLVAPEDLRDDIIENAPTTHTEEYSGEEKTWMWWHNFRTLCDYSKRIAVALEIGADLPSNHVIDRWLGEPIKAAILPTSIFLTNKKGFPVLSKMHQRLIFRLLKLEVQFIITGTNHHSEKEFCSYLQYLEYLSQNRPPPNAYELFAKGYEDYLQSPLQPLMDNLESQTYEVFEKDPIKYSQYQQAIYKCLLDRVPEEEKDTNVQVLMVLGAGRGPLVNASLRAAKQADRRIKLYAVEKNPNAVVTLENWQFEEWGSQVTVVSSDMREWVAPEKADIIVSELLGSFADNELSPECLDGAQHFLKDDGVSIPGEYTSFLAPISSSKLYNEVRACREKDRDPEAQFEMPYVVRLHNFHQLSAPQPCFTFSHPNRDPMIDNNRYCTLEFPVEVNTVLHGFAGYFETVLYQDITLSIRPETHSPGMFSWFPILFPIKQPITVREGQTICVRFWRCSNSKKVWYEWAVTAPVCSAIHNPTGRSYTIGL
Chain of PRMT5 (Q9BQA1 whole entry partner): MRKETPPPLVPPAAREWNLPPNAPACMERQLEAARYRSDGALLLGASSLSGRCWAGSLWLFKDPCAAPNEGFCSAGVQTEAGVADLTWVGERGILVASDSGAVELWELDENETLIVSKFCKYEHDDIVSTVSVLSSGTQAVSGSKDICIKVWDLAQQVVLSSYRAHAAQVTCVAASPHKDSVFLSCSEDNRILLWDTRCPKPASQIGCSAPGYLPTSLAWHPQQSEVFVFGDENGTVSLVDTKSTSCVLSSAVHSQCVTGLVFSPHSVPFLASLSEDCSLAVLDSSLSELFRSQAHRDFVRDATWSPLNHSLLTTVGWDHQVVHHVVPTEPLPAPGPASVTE

SMILES: CC(=O)N1CC2(CC(Nc3ccc4c(c3)C(=O)N(C[C@H](O)CN3CCc5ccccc5C3)CC43CC3)C2)C1 [Example 10, (R)-7′-((2-Acetyl-2-azaspiro[3.3]hept-6-yl)amino)-2′-(3-(3,4-dihydroisoquinolin-2(1H)-yl)-2-hydroxypropyl)-2′,3′-dihydro-1′H-spiro[cyclopropane-1,4′-isoquinolin]-1′-one]
- IC50: 2660 nM
